Reference: article PMC9736374, “Design, Synthesis and Antimicrobial Properties of New Tetracyclic Quinobenzothiazine Derivatives” (International Journal of Molecular Sciences, 2022)

Legend:
[1] = tested on: Staphylococcus aureus ATCC 29213; experiment: MIC, microtitration broth method; format: cell-based; conditions: ATCC29213; SA = Staphylococcus aureus ATCC 29213; 24 h, 37 °C
[2] = tested on: methicillin-resistant S. aureus SA 3202 (MRSA1); experiment: MIC, microtitration broth method; format: cell-based; conditions: Staphylococcus aureus; MRSA1 = SA 3202; 24 h, 37 °C
[3] = tested on: methicillin-resistant S. aureus SA 630 (MRSA2); experiment: MIC, microtitration broth method; format: cell-based; conditions: Staphylococcus aureus; MRSA2 = SA 630; 24 h, 37 °C
[4] = tested on: methicillin-resistant S. aureus 63718 (MRSA3); experiment: MIC, microtitration broth method; format: cell-based; conditions: Staphylococcus aureus; MRSA3 = 63718; 24 h, 37 °C
[5] = tested on: Enterococcus faecalis ATCC 29212; experiment: MIC, microtitration broth method; format: cell-based; conditions: ATCC29212; EF = Enterococcus faecalis; 24 h, 37 °C
[6] = tested on: vancomycin-resistant E. faecalis VRE 342B (VRE1); experiment: MIC, microtitration broth method; format: cell-based, Enterococcus faecalis; conditions: VRE1 = VRE 342B; 24 h, 37 °C
[7] = tested on: vancomycin-resistant E. faecalis VRE 368 (VRE2); experiment: MIC, microtitration broth method; format: cell-based, Enterococcus faecalis; conditions: VRE2 = VRE 368; 24 h, 37 °C
[8] = tested on: vancomycin-resistant E. faecalis VRE 725B (VRE3); experiment: MIC, microtitration broth method; format: cell-based, Enterococcus faecalis; conditions: VRE3 = VRE 725B; 24 h, 37 °C
M. smegmatis ATCC 700084 = experiment: In vitro antimycobacterial MIC, broth dilution micro-method; format: cell-based, Mycobacterium smegmatis; conditions: Mycolicibacterium smegmatis, ATCC700084, 72 h; MS = M. smegmatis ATCC 700084; 3 days, 37 °C
[9] = tested on: Mycobacterium marinum CAMP 5644; experiment: as above; format: cell-based; conditions: CAMP5644, 504 h; MM = Mycobacterium marinum CAMP 5644; 21 days, 28 °C
[10] = tested on: Staphylococcus aureus ATCC 29213; experiment: MBC, agar aliquot subculture method; format: cell-based; conditions: ATCC29213; SA = Staphylococcus aureus ATCC 29213
[11] = tested on: methicillin-resistant S. aureus SA 3202 (MRSA1); experiment: MBC, agar aliquot subculture method; format: cell-based; conditions: Staphylococcus aureus; MRSA1 = SA 3202
[12] = tested on: methicillin-resistant S. aureus SA 630 (MRSA2); experiment: MBC, agar aliquot subculture method; format: cell-based; conditions: Staphylococcus aureus; MRSA2 = SA 630
[13] = tested on: methicillin-resistant S. aureus 63718 (MRSA3); experiment: MBC, agar aliquot subculture method; format: cell-based; conditions: Staphylococcus aureus; MRSA3 = 63718
[14] = tested on: Enterococcus faecalis ATCC 29212; experiment: MBC, agar aliquot subculture method; format: cell-based; conditions: ATCC29212; EF = Enterococcus faecalis
[15] = tested on: vancomycin-resistant E. faecalis VRE 342B (VRE1); experiment: MBC, agar aliquot subculture method; format: cell-based, Enterococcus faecalis; conditions: VRE1 = VRE 342B
[16] = tested on: vancomycin-resistant E. faecalis VRE 368 (VRE2); experiment: MBC, agar aliquot subculture method; format: cell-based, Enterococcus faecalis; conditions: VRE2 = VRE 368
[17] = tested on: vancomycin-resistant E. faecalis VRE 725B (VRE3); experiment: MBC, agar aliquot subculture method; format: cell-based, Enterococcus faecalis; conditions: VRE3 = VRE 725B
[18] = tested on: normal human dermal fibroblasts (NHDF); experiment: In vitro cell viability, WST-1 assay; format: cell-based; conditions: 72 h
Method: Compounds were evaluated for their antiproliferative activity using NHDF (normal human dermal fibroblasts, ATCC, Manassas, VA, USA). The cultured cells were kept at 37 °C and 5% CO2. The cells were seeded (1 × 10^4 cells/well/100 μL DMEM supplemented with 10% FCS and streptomycin/penicillin) into 96-well plates (Corning Inc., Corning, NY, USA). Cells were counted using a hemocytometer (Burker chamber) and phase contrast Olympus IX50 microscope equipped with Sony SSC-DC58 AP camera and Olympus DP10 digital camera. The cell viability of the compounds was determined using the Cell Proliferation Reagent WST-1 assay (Roche Molecular Biochemicals, Mannheim, Germany). The examined cells were exposed to the tested compounds (1 mg/mL DMSO stock) for 72 h at various concentrations (0.1–100 μg/mL). The control was included in order to eliminate the DMSO effect at the concentration used. Cell cultures were incubated with WST-1 (10 μL) for 1 h. The absorbance of the samples was measured against a background control at 450 nm using a microplate reader with a reference wavelength at 600 nm. The obtained results are expressed as means of at least two independent experiments performed in triplicate.

Lipophilicity by RP-TLC = format: physicochemical; conditions: Tris buffer pH 7.4/acetone, read-out: logPTLC
Method: The lipophilicity parameters were determined experimentally using reverse phase thin-layer chromatography (RP-TLC). Chromatograms were prepared on RP-18F254s plates (1.05559.0001, Merck, Germany) precoated with nonpolar silicone oil. Plates were developed in glass chromatography chambers previously saturated with vapor of mobile phase. The mobile phase was composed of 0.2M Tris buffer (pH = 7.4) and acetone in different concentrations, i.e., 50%, 60%, 70%, 80 and 90%. The chromatograms were visualised in UV light (λ = 254 nm). Determination of the RF coefficient was carried out twice for all compounds; in all cases, acetone concentrations used. The final value of RF is the mean of the two measurements. The obtained RF coefficient was used to calculate the value of the RM parameter according to the equation: RM = log [(1/RF) − 1]. By extrapolating RM values to zero acetone concentration, a relative RM0 lipophilicity parameter was obtained, according to the equation: RM = RM0 + bC, where b is slope and C is concentration of acetone in mobile phase. Based on RM0 and the calibration curve, the values of logPTLC for compounds 6a–l were determined. The calibration curve was calculated using the relationship between RM0 of the standard molecules (acetanilide, p-kresol, p-bromoacetophenone, benzophenone, anthracene) and the corresponding logP parameters specified by the extraction method, respectively. RM0 parameters of the standard molecules and quinobenzothiazine derivatives 6a–l were determined in the same empirical conditions.

[19] = tested on: S. aureus ATCC 29213 respiratory activity; experiment: MTT assay of bacterial respiration; format: cell-based, Staphylococcus aureus
S. aureus = experiment: Crystal violet uptake (membrane permeability); format: cell-based, Staphylococcus aureus; conditions: 4× MIC, 1 h; compared to growth control and 1% Tween 20
Method: Phenothiazines are also known for their ability to interact with and damage the cell wall, which has fatal consequences for the microorganism. Therefore, the bacterial suspensions were treated by compounds 6a, 6e, 6g, 6j and 6k (4× MIC) for 1 h. The uptake of crystal violet was expressed as a percentage compared to the original crystal violet solution.

MRSA 63718 = tested on: MRSA 63718; parameters: method as in PMID 25692135; conditions: cited from earlier work
[20] = S. aureus ATCC 29213, MTT, 24 h

C[n+]1cc2c(c3ccccc31)Nc1cc(OCc3ccccc3)ccc1S2 [Compound 6k, 10-benzyloxy-5-methyl-12H-quino[3,4-b][1,4]benzothiazinium chloride]
MIC [1]: 19.7 µM
MIC [2]: 19.7 µM
MIC [3]: 9.83 µM
MIC [4]: 9.83 µM
MIC [5]: 78.6 µM
MIC [6]: 78.6 µM
MIC [7]: 157 µM
MIC [8]: 157 µM
MIC (M. smegmatis ATCC 700084): 19.7 µM
MIC [9]: 19.7 µM
MBC [10]: 19.7 µM
MBC [11]: 19.7 µM
MBC [12]: 19.7 µM
MBC [13]: 9.83 µM
MBC [14]: 78.6 µM
MBC [15]: 78.6 µM
MBC [16]: 157 µM
MBC [17]: 157 µM
IC50 [18]: > 100 µM
chromatographic logP (Lipophilicity by RP-TLC): 3.48
Conc.: corresponding multiple of MBC with at least 70% inhibition of respiratory activity [19, 20]: 2× MIC (2× MBC)
Conc.: lowest multiple of MIC with at least 70% inhibition of respiratory activity [19, 20]: 2× MIC (2× MBC)
Decrease in viability < 70% at MIC value (MTT) ([19]; S. aureus ATCC 29213, at MIC): did not show a decrease in viability < 70%
S. aureus Respiration Inhibition ([19]; at the concentration given): 97.6%
Effect on plasma membrane permeability (uptake of crystal violet) (S. aureus): did not affect plasma membrane permeability

CN[C@H](CC(C)C)C(=O)N[C@H]1C(=O)N[C@@H](CC(N)=O)C(=O)N[C@H]2C(=O)N[C@H]3C(=O)N[C@H](C(=O)N[C@H](C(=O)O)c4cc(O)cc(O)c4-c4cc3ccc4O)[C@H](O)c3ccc(c(Cl)c3)Oc3cc2cc(c3O[C@@H]2O[C@H](CO)[C@@H](O)[C@H](O)[C@H]2O[C@H]2C[C@](C)(N)[C@H](O)[C@H](C)O2)Oc2ccc(cc2Cl)[C@H]1O [vancomycin]
MIC of vancomycin (MRSA 63718): 2 µg/mL
